Data published in patent US7345091B2, “Carotenoid ether analogs or derivatives for the inhibition and amelioration of disease” (Cardax Pharmaceuticals, Inc., priority 2002, dated 2008).
Entries after “also recorded” stand apart in the source; their conditions may differ. Where a name gives a salt, the structure may show the parent alone.

Columns and labels:
[1] = Single dose oral plasma pharmacokinetics; assay type: in vivo, male C57BL/6 mice; conditions: free astaxanthin, single 500 mg/kg oral dose
Protocol: Single dose oral pharmacokinetic parameters (including Cmax, Tmax, AUC(0-72) Vd, and clearance) of the disodium disuccinate astaxanthin derivative XVI were determined in male C57BL/6 mice. The animals were administered the derivative orally at a single maximum dose (500 mg/kg) shown in prior studies to likely be efficacious in preventing the injury secondary to CCl4-administration in Sprague-Dawley rats (100 mg/kg body weight in those studies). Samples for HPLC analysis of levels of free astaxanthin in plasma and liver were obtained at the following time points, from at least 3 animals per time point: Time 0 [Immediately Before Dosing of Test Compound], 2, 4, 6, 8, 12, 16, 24, 48, and 72 Hours After Ingestion. Additional samples, with N<3, were taken at other intervals (10, 14, and 36 hours; Tables 2 and 3). Non-esterified, free astaxanthin levels were determined in this study as carotenoid esters are completely cleaved in the mammalian gut to free carotenoid, which moves passively across the enterocyte. 5 Male C57BL/6 mice, approximately 25 g, were housed in cages (three mice/cage) and fed standard mouse chow (Purina Mouse Chow, Ralston Purina, St. Louis) and water ad libitum for at least five days prior to the start of the experiment. […]

[2] = system: mouse embryonic fibroblast C3H/10T 1/2 cells; experiment: Gap junctional communication assay (Lucifer Yellow dye transfer); assay type: cell-based; conditions: 1×10^-5 M in 1:2 EtOH/H2O, 4 days; for extent of junctional communication: vs solvent controls
Protocol: A series of experiments were performed to assess the ability of the disodium salt disuccinate astaxanthin derivatives XVI to induce gap junctional communication (GJC) in an immortalized line of murine fibroblasts. Studies were conducted: • (1) at the functional level to measure cell/cell communication by increased dye transfer between confluent cells in monolayer culture; • (2) at the molecular level as measured by the ability of these compounds to induce expression of connexin43 (Cx43) protein. Cx43 is the structural unit of the intercellular channels in these fibroblasts that allows GJC; • (3) at the cellular level as shown by the ability of the disodium salt disuccinate astaxanthin derivatives XVI to increase the number and size of Cx43 immunoreactive plaques in regions of the plasma membrane in direct contact with adjacent cells. (1) Communication Assays. Experiments were performed to assess the ability of the disodium salt disuccinate astaxanthin derivative XVI [as a statistical mixture of the all-trans (all-E) stereoisomers, 3S,3′S, meso, and 3R,3′R in 1:2:1 ratio] to enhance gap junctional intercellular communication (GJC) between mouse embryonic fibroblast C3H/10T 1/2 cells. This ability has been previously highly correlated with the ability of carotenoids to inhibit carcinogen-induced neoplastic transformation (Zhang, 1992). Moreover, Cx43-mediated junctional communication between cardiac myocytes is responsible for transfer of signals that maintain synchronous contractions and prevent cardiac arrhythmias (Peters, 1995). Junctional permeability was assayed by microinjection of the fluorescent dye Lucifer Yellow CH (Sigma, St. Louis, Mo.) into individual confluent cells essentially as described previously (Zhang, 1994). […] Successful injection of Lucifer Yellow was confirmed by brief illumination with UV light, which causes yellow fluorescence of Lucifer Yellow. […] The number of fluorescent cells adjacent to the injected cell was later determined by digital image analysis using an unbiased density threshold method and the SigmaScan software program (Jandel Scientific). […]

[3] = system: C3H/10T1/2 cells; experiment: Assembly of Cx43 into plaques (immunofluorescent staining); assay type: cell-based, mouse; conditions: 1×10^-5 M in 1:2 EtOH/H2O, 4 days
Protocol: In this experiment expression and assembly of Cx43 into plaques was assessed by immunofluorescent staining. Procedures were essentially as described in Zhang (1992). Briefly, confluent cultures of C3H/10T1/2 cells were grown on Permanox plastic 4-chamber slides (Nalge Nunc International, Naperville, Ill.) and treated for 4 days with: (1) the disodium salt disuccinate astaxanthin derivative XVI (statistical mixture of stereoisomers) dissolved in a 1:2 EtOH/H2O formulation; (2) the retinoid TTNPB at 1×10^−8 M in tetrahydrofuran as a positive control; or (3) 1:2 EtOH/H2O as a solvent control. Cells were fixed with −20° C. methanol overnight, washed in buffer, blocked in 1% bovine serum albumin (Sigma, St, Louis, Mo.) in PBS, and incubated with the rabbit polyclonal anti-Cx43 antibody (Zymed, San Francisco, Calif.) as in (2) above and detected with Alexa568 conjugated anti-rabbit secondary (Molecular Probes, Eugene, Oreg.). Slides were illuminated with […] light and images were acquired at a wavelength of 600 nm using the Zeiss Axioscope light microscope and a Roper Scientific cooled CCD camera. […] In cultures treated with solvent as control, such immunoreactive plaques were infrequent and were smaller than those detected in cells treated with the statistical mixture of stereoisomers of the disodium salt disuccinate astaxanthin derivative XVI or with TTNPB as positive control. […]

CC1=C(/C=C/C(C)=C/C=C/C(C)=C/C=C/C=C(C)/C=C/C=C(C)/C=C/C2=C(C)C(=O)C(OC(=O)CCC(=O)O)CC2(C)C)C(C)(C)CC(OC(=O)CCC(=O)O)C1=O (racemic) [XVI, Disodium Salt of the Disuccinic Acid Ester of Astaxanthin]
Oral clearance [1]: 216.822 L/h | microinjected treated cells functionally coupled by gap junctions ([2]; 15 of 22 cells, control 27%): 56% | extent of junctional communication [2]: effectively increased the extent of junctional communication | extent of junctional communication ([2]; listed as disodium salt disuccinate astaxanthin derivative): induces functional gap junctional communication | assembly of immunoreactive Cx43 into plaques [3]: increases assembly of Cx43; also recorded: exhibited assembly of immunoreactive Cx43 into plaques
